From US20250098679A1, “HERBICIDAL PYRIDONE DERIVATIVES” (SYNGENTA CROP PROTECTION AG, priority 2021, published 2025)

Key:
Assay type in all cases: in vivo
Conditions in all cases: evaluated after 13 days
Setaria faberi (SETFA) [1] = test: Pre-emergence Test, Setaria faberi (SETFA)
Zea mays (ZEAMX) [2] = test: Post-emergence Test, Zea mays (ZEAMX); design: key to percentage damage caused to the plant, ZEAMX (five-point scale): 5=81-100%, 4=61-80%, 3=41-60%, 2=21-40%, 1=0-20% damage
Summary of the method: (§1)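 Application was a spray of acetone/water (50:50) with 0.5% Tween 20 onto pots of test species sown in standard soil. Unless otherwise stated, the rate was 1000 g/ha. After 13 days under glasshouse conditions (24/16 °C, 65% humidity), injury was scored from 1 (0-20%) to 5 (81-100%).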

[3] = test system: Ipomoea hederacea (IPOHE); test: Pre-emergence Test, Ipomoea hederacea (IPOHE)
[4] = test system: Amaranthus retoflexus (AMARE); test: Post-emergence Test, Amaranthus retoflexus (AMARE); design: key to percentage damage caused to the plant, AMARE (five-point scale): 5=81-100%, 4=61-80%, 3=41-60%, 2=21-40%, 1=0-20% damage
Summary of the method: as §1

Zea mays (ZEAMX) [5] = test: Pre-emergence Test, Zea mays (ZEAMX)
[6] = test system: Amaranthus palmeri (AMAPA); test: Pre-emergence Test, Amaranthus palmeri (AMAPA)
[7] = test system: Echinochloa crus-galli (ECHCG); test: Pre-emergence Test, Echinochloa crus-galli (ECHCG)
[8] = test system: Echinochloa crus-galli (ECHCG); test: Post-emergence Test, Echinochloa crus-galli (ECHCG); design: key to percentage damage caused to the plant, ECHCG (five-point scale): 5=81-100%, 4=61-80%, 3=41-60%, 2=21-40%, 1=0-20% damage
Summary of the method: as §1

[9] = test system: Amaranthus retoflexus (AMARE); test: Pre-emergence Test, Amaranthus retoflexus (AMARE)
[10] = test system: Amaranthus palmeri (AMAPA); test: Post-emergence Test, Amaranthus palmeri (AMAPA); design: key: 5=81-100%, 4=61-80%, 3=41-60%, 2=21-40%, 1=0-20% damage
Summary of the method: as §1

Setaria faberi (SETFA) [11] = test: Post-emergence Test, Setaria faberi (SETFA); design: key to percentage damage caused to the plant, SETFA (five-point scale): 5=81-100%, 4=61-80%, 3=41-60%, 2=21-40%, 1=0-20% damage
Summary of the method: as §1

[12] = test system: Ipomoea hederacea (IPOHE); test: Post-emergence Test, Ipomoea hederacea (IPOHE); design: key to percentage damage caused to the plant, IPOHE (five-point scale): 5=81-100%, 4=61-80%, 3=41-60%, 2=21-40%, 1=0-20% damage
Summary of the method: as §1

Compound	Pre-emergence Test SETFA, percentage damage caused to the plant (five-point scale) (Setaria faberi (SETFA) [1]; 1000 g/ha)	percentage damage caused to the plant, ZEAMX (five-point scale) (Zea mays (ZEAMX) [2]; 250 g/Ha)	percentage damage caused to the plant, ZEAMX (five-point scale) (Zea mays (ZEAMX) [2]; 1000 g/ha)	Pre-emergence Test IPOHE, percentage damage caused to the plant (five-point scale) ([3]; 1000 g/ha)	percentage damage caused to the plant, AMARE (five-point scale) ([4]; 250 g/Ha)	percentage damage caused to the plant, AMARE (five-point scale) ([4]; 1000 g/ha)	Pre-emergence Test ZEAMX, percentage damage caused to the plant (five-point scale) (Zea mays (ZEAMX) [5]; 1000 g/ha)	Pre-emergence Test AMAPA, percentage damage caused to the plant (five-point scale) ([6]; 1000 g/ha)	Pre-emergence Test ECHCG, percentage damage caused to the plant (five-point scale) ([7]; 1000 g/ha)	percentage damage caused to the plant, ECHCG (five-point scale) ([8]; 250 g/Ha)	Pre-emergence Test AMARE, percentage damage caused to the plant (five-point scale) ([9]; 1000 g/ha)	percentage damage caused to the plant, AMAPA (five-point scale) ([10]; 250 g/Ha)	percentage damage caused to the plant, AMAPA (five-point scale) ([10]; 1000 g/ha)	percentage damage caused to the plant, SETFA (five-point scale) (Setaria faberi (SETFA) [11]; 1000 g/ha)	percentage damage caused to the plant, IPOHE (five-point scale) ([12]; 250 g/Ha)	percentage damage caused to the plant, IPOHE (five-point scale) ([12]; 1000 g/ha)	percentage damage caused to the plant, ECHCG (five-point scale) ([8]; 1000 g/ha)	percentage damage caused to the plant, SETFA (five-point scale) (Setaria faberi (SETFA) [11]; 250 g/Ha)	further results
CCn1c(Cn2nc(C(F)(F)F)cc2C(F)(F)F)cc(=O)c(C(=O)O)c1-c1ccc(Cl)c(Cl)c1 [Compound 135, 6-[[3,5-bis(trifluoromethyl)pyrazol-1-yl]methyl]-2-(3,4-dichlorophenyl)-1-ethyl-4-oxo-pyridine-3-carboxylic acid]	0	1 (1=0-20%)	2 (2=21-40%)	2 (2=21-40%)	1 (1=0-20%)	2 (2=21-40%)	1 (1=0-20%)	0	1 (1=0-20%)	1 (1=0-20%)	1 (1=0-20%)	1 (1=0-20%)	1 (1=0-20%)	4 (4=61-80%)	2 (2=21-40%)	3 (3=41-60%)	–	–	–
CCn1c(Cn2nc(C(F)(F)F)cc2OCCOC)cc(=O)c(C(=O)O)c1-c1ccc(Cl)c(Cl)c1 [Compound 144, 2-(3,4-dichlorophenyl)-1-ethyl-6-[[5-(2-methoxyethoxy)-3-(trifluoromethyl)pyrazol-1-yl]methyl]-4-oxo-pyridine-3-carboxylic acid]	5 (5=81-100%)	0	3 (3=41-60%)	1 (1=0-20%)	1 (1=0-20%)	2 (2=21-40%)	0	0	1 (1=0-20%)	2 (2=21-40%)	0	0	1 (1=0-20%)	3 (3=41-60%)	1 (1=0-20%)	2 (2=21-40%)	3 (3=41-60%)	2 (2=21-40%)	–
CCn1c(Cn2nc(C(F)(F)F)cc2OC)cc(=O)c(C(=O)O)c1-c1ccc(Cl)c(Cl)c1 [Compound 145, 2-(3,4-dichlorophenyl)-1-ethyl-6-[[5-methoxy-3-(trifluoromethyl)pyrazol-1-yl]methyl]-4-oxo-pyridine-3-carboxylic acid]	5 (5=81-100%)	1 (1=0-20%)	3 (3=41-60%)	3 (3=41-60%)	1 (1=0-20%)	3 (3=41-60%)	0	0	4 (4=61-80%)	3 (3=41-60%)	1 (1=0-20%)	0	3 (3=41-60%)	4 (4=61-80%)	3 (3=41-60%)	3 (3=41-60%)	4 (4=61-80%)	3 (3=41-60%)	Pre-emergence Test SETFA, percentage damage caused to the plant (five-point scale) (Setaria faberi (SETFA) [1]; 250 g/Ha (*)): 5 (5=81-100%); Pre-emergence Test IPOHE, percentage damage caused to the plant (five-point scale) ([3]; 250 g/Ha (*)): 0; Pre-emergence Test ZEAMX, percentage damage caused to the plant (five-point scale) (Zea mays (ZEAMX) [5]; 250 g/Ha (*)): 0; Pre-emergence Test AMAPA, percentage damage caused to the plant (five-point scale) ([6]; 250 g/Ha (*)): 0; Pre-emergence Test ECHCG, percentage damage caused to the plant (five-point scale) ([7]; 250 g/Ha (*)): 2 (2=21-40%); Pre-emergence Test AMARE, percentage damage caused to the plant (five-point scale) ([9]; 250 g/Ha (*)): 0
CCn1c(Cn2nc(C)cc2O)cc(=O)c(C(=O)O)c1-c1ccc(Cl)c(Cl)c1 [Compound 146, 2-(3,4-dichlorophenyl)-1-ethyl-6-[(5-hydroxy-3-methyl-pyrazol-1-yl)methy]-4-oxo-pyridine-3-carboxylic acid]	1 (1=0-20%)	–	0	0	–	0	0	0	1 (1=0-20%)	–	0	–	0	1 (1=0-20%)	–	0	0	–	–
CCn1c(Cn2nc(C(F)(F)F)cc2O)cc(=O)c(C(=O)O)c1-c1ccc(Cl)c(Cl)c1 [Compound 147, 2-(3,4-dichlorophenyl)-1-ethyl-6-[[5-hydroxy-3-(trifluoromethyl)pyrazol-1-yl]methyl]-4-oxo-pyridine-3-carboxylic acid]	1 (1=0-20%)	–	0	0	–	1 (1=0-20%)	0	1 (1=0-20%)	0	–	0	–	0	0	–	1 (1=0-20%)	0	–	–
